According to US12617784B2, “AKT inhibitor” (Nanjing Chia Tai Tianqing Pharmaceutical Co., Ltd., priority 2019, dated 2026):
Where a name gives a salt, the structure may show the parent alone.

Columns and labels:
[1] = biological target: T1, AKT3 (Homo sapiens, UniProt Q9Y243); test: In vitro enzyme activity test (HTRF kinEASE TK), AKT3; type: biochemical; conditions: enzyme 0.3 ng/well, reaction 50 min
T1 construct: purchased Invitrogen PV3185
Method: (§1) Experimental Procedure 2.1 Preparation of Reagents
(§2) 1 mL 1× Kinase Reaction Buffer of Kinase AKT1, AKT2 and AKT3 contain 200 μL 5× Kinase Reaction Buffer, 5 μL 1 M MgCl2, 1 μL 1 M DTT and 794 μL ultrapure water.
(§3) In addition to the control wells, 4 μL of the diluted compound working solutions were added to all reaction wells.
(§4) b) 2 μL of the previously prepared TK-biotin substrate solution was added to all reaction wells.
(§5) c) 2 μL of the previously prepared enzyme solution was added to all reaction wells, except the negative wells. The volume of the negative well was filled with 2 μL of enzyme corresponding to 1× kinase reaction buffer. The plate was sealed with sealing film. After mixing, the plate was incubated at room temperature for 10 min to allow the compound and enzyme to fully combined.
(§6) d) 2 μL of ATP solution was added to all reaction wells to start the kinase reaction.
(§7) e) The test solution was prepared 5 min before the end of the kinase reaction.
(§8) f) After the kinase reaction was completed, 5 μL of diluted streptavidin-XL665 were added to all reaction wells, and immediately the diluted europium-labeled tyrosine kinase substrate antibody detection solution was added after mixing.
(§9) g) The plate was sealed and mixed well. […] The inhibition rate of each well was calculated through the fully active wells and the background signal wells, taking the average value in case of multiple wells. Meanwhile, the professional drawing analysis software PRISM 6.0 was used to fit the half maximal inhibitory concentration (IC50) of each test compound.

[2] = biological target: AKT1 (Homo sapiens, UniProt P31749); test: In vitro enzyme activity test (HTRF kinEASE TK), AKT1; type: biochemical; conditions: ATP 2 μM, enzyme 0.6 ng/well, reaction 50 min
Sequence of AKT1 (P31749 whole entry): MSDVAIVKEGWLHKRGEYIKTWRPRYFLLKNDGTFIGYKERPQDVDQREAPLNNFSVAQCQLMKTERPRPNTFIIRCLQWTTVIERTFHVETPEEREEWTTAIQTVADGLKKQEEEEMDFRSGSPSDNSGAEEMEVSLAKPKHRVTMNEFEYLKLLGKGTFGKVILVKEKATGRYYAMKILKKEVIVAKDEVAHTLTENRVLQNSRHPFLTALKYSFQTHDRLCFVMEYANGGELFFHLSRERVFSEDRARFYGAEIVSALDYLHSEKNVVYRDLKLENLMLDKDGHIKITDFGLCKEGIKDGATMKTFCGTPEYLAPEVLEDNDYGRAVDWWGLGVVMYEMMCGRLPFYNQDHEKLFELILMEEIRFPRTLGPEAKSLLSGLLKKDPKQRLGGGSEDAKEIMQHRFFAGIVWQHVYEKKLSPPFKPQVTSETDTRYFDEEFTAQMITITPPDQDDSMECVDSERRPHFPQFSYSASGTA
Method: as §1, §2, §3, §4, §5, §6, §7, §8, §9

T1 sequence (Q9Y243 whole entry): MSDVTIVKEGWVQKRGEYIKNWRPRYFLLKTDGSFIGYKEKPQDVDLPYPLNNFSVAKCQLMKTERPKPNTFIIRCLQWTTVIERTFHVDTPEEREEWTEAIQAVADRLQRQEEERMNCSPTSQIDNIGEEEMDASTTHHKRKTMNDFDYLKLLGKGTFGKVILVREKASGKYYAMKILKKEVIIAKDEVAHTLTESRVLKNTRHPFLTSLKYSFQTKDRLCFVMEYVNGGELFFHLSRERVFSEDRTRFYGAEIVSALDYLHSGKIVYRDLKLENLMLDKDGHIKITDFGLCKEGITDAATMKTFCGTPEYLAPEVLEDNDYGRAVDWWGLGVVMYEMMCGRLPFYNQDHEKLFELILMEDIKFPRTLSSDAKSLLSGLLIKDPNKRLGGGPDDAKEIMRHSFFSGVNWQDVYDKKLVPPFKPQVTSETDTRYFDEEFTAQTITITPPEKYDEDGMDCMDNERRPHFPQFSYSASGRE

Row | IC50 [1] | IC50 [2] | SMILES
1 | 0.19 nM | 1.5 nM | CC(C)NC[C@@H](C(=O)N1CCN(c2ncnc3c2[C@H](C)OC(=O)N3)CC1)c1ccc(Cl)cc1 (single isomer, unassigned) [Example 23 Isomer 1]
2 | 42 nM | 201 nM | CC(C)NC[C@@H](C(=O)N1CCN(c2ncnc3c2[C@@H](C)OC(=O)N3)CC1)c1ccc(Cl)cc1 (single isomer, unassigned) [Example 23 Isomer 2]
3 | 61 nM | 354 nM | CC(C)NC[C@@H](C(=O)N1CCN(c2ncnc3c2[C@H](C)OC(=O)N3)CC1)c1ccc(Cl)cc1 (single isomer, unassigned) [Example 24 Isomer 1]
4 | 0.41 nM | 0.63 nM | CC(C)NC[C@@H](C(=O)N1C2CCC1CN(c1ncnc3c1[C@H](C)OC(=O)N3)C2)c1ccc(Cl)cc1 (single isomer, unassigned) [Example 32 Isomer 1]
5 | 9.8 nM | 25 nM | CC(C)NC[C@@H](C(=O)N1C2CCC1CN(c1ncnc3c1[C@@H](C)OC(=O)N3)C2)c1ccc(Cl)cc1 (single isomer, unassigned) [Example 32 Isomer 2]
6 | 0.2 nM | 1.6 nM | CC(C)NC[C@@H](C(=O)N1CC2CCC(C1)N2c1ncnc2c1[C@H](C)OC(=O)N2)c1ccc(Cl)cc1 (single isomer, unassigned) [Example 33 Isomer 1]
7 | 55 nM | 260 nM | CC(C)NC[C@@H](C(=O)N1CC2CCC(C1)N2c1ncnc2c1[C@@H](C)OC(=O)N2)c1ccc(Cl)cc1 (single isomer, unassigned) [Example 33 Isomer 2]
8 | 1.2 nM | 6 nM | CC(C)NC[C@@H](C(=O)N1CCN(c2ncnc3c2C(C)OC(=O)N3)CC1)c1ccc(Cl)cc1 (stereo partly drawn) [Example 23, 5-(4-((S)-2-(4-chlorophenyl)-3-(isopropylamino)propionyl)piperazin-1-yl)-4-methyl-1,4-dihydro-2H-pyrimido[4,5-d][1,3]oxazin-2-one formate]
9 | 0.52 nM | 30 nM | CC(C)NC[C@@H](C(=O)N1CC2CCC(C1)N2c1ncnc2c1N(C)CC(=O)N2)c1ccc(Cl)cc1 [Example 26]

Further lines, the molecule ahead of its results:

Row | SMILES | IC50 [1] | IC50 [2]
10 | CC(C)NC[C@@H](C(=O)N1CCN(c2ncnc3c2[C@@H](C(F)(F)F)CC(=O)N3)CC1)c1ccc(Cl)cc1 (single isomer, unassigned) [Example 16 Isomer 1] | 139 nM | 776 nM
11 | CC(C)NC[C@@H](C(=O)N1CCN(c2ncnc3c2[C@H](C(F)(F)F)CC(=O)N3)CC1)c1ccc(Cl)cc1 (single isomer, unassigned) [Example 16 Isomer 2] | 1 nM | 12 nM
12 | CC(C)NC[C@@H](C(=O)N1CCN(c2ncnc3c2C[C@@H](C)C(=O)N3)CC1)c1ccc(Cl)cc1 (single isomer, unassigned) [Example 19 Isomer 1] | 18 nM | 82 nM
13 | CC(C)NC[C@@H](C(=O)N1CCN(c2ncnc3c2C[C@H](C)C(=O)N3)CC1)c1ccc(Cl)cc1 (single isomer, unassigned) [Example 19 Isomer 2] | 9.1 nM | 25 nM
14 | CC(C)NC[C@@H](C(=O)N1CCN(c2ncnc3c2N(C)CC(=O)N3)[C@H]2C[C@H]21)c1ccc(Cl)cc1 (single isomer, unassigned) [Example 27 Isomer 1] | 0.48 nM | 22 nM
15 | CC(C)NC[C@@H](C(=O)N1CCN(c2ncnc3c2[C@H](C)OC(=O)N3)[C@@H]2C[C@@H]21)c1ccc(Cl)cc1 (single isomer, unassigned) [Example 34 Isomer 1] | 45 nM | 186 nM
16 | CC(C)NC[C@@H](C(=O)N1CCN(c2ncnc3c2[C@@H](C)OC(=O)N3)[C@@H]2C[C@@H]21)c1ccc(Cl)cc1 (single isomer, unassigned) [Example 34 Isomer 2] | 89 nM | 613 nM
17 | CC(C)NC[C@@H](C(=O)N1CCN(c2ncnc3c2[C@@H](C)OC(=O)N3)[C@H]2C[C@H]21)c1ccc(Cl)cc1 (single isomer, unassigned) [Example 34 Isomer 3] | 232 nM | 429 nM
18 | CC(C)NC[C@@H](C(=O)N1CCN(c2ncnc3c2[C@@H]2C[C@@H]2C(=O)N3)CC1)c1ccc(Cl)cc1 (single isomer, unassigned) [Example 40 Isomer 1] | 12 nM | 14 nM
19 | CC(C)NC[C@@H](C(=O)N1CCN(c2ncnc3c2[C@H]2C[C@H]2C(=O)N3)CC1)c1ccc(Cl)cc1 (single isomer, unassigned) [Example 40 Isomer 2] | 61 nM | 82 nM
20 | CC(C)NC[C@@H](C(=O)N1CCN(c2ncnc3c2C(C)CC(=O)N3)CC1)c1ccc(Cl)cc1 (stereo partly drawn) [Example 1, 4-(4-((S)-2-(4-chlorophenyl)-3-(isopropylamino)propionyl)piperazin-1-yl)-5-methyl-5,8-dihydropyrido[2,3-d]pyrimidin-7(6H)-one] | 1.6 nM | 2.4 nM
21 | CC(C)NC[C@@H](C(=O)N1CCN(c2ncnc3c2CCC(=O)N3)CC1)c1ccc(Cl)cc1 [Example 3, (S)-4-(4-(2-(4-chlorophenyl)-3-(isopropylamino)propionyl)piperazin-1-yl)-5,8-dihydropyrido[2,3-d]pyrimidin-7(6H)-one] | 7.5 nM | 52.4 nM
22 | CC(C)NC[C@@H](C(=O)N1CCN(c2ncnc3c2[C@H](C)CC(=O)N3)[C@H](C)C1)c1ccc(Cl)cc1 [Example 7, (R)-4-((R)-4-((S)-2-(4-chlorophenyl)-3-(isopropylamino)propionyl)-2-methylpiperazin-1-yl)-5-methyl-5,8-dihydropyrido[2,3-d]pyrimidin-7(6H)-one] | 7.4 nM | 26.4 nM
23 | CC(C)NC[C@@H](C(=O)N1CCN(c2ncnc3c2[C@H](C)CC(=O)N3)C[C@H]1C)c1ccc(Cl)cc1 [Example 8, (R)-4-((R)-4-((S)-2-(4-chlorophenyl)-3-(isopropylamino)propionyl)-3-methylpiperazin-1-yl)-5-methyl-5,8-dihydropyrido[2,3-d]pyrimidin-7(6H)-one] | 2.7 nM | 28.7 nM
24 | CC(C)NC[C@@H](C(=O)N1CC2CCC(C1)N2c1ncnc2c1[C@H](C)CC(=O)N2)c1ccc(Cl)cc1 [Example 11, (R)-4-(3-((S)-2-(4-chlorophenyl)-3-(isopropylamino)propionyl)-3,8-diazabicyclo[3.2.1]octan-8-yl)-5-methyl-5,8-dihydropyrido[2,3-d]pyrimidin-7(6H)-one] | 0.25 nM | 3.5 nM
25 | CC(C)NC[C@@H](C(=O)N1CCN(c2ncnc3c2[C@H](C)CC(=O)N3)CC12CC2)c1ccc(Cl)cc1 [Example 12, (R)-4-(4-((S)-2-(4-chlorophenyl)-3-(isopropylamino)propionyl)-4,7-diazaspiro[2.5]octan-7-yl)-5-methyl-5,8-dihydropyrido[2,3-d]pyrimidin-7(6H)-one] | 4.8 nM | 55.1 nM
26 | CC(C)NC[C@@H](C(=O)N1C[C@@H]2CN(c3ncnc4c3[C@H](C)CC(=O)N4)C[C@@H]2C1)c1ccc(Cl)cc1 [Example 13 cis-isomer, cis-(5R)-4-(5-((S)-2-(4-chlorophenyl)-3-(isopropylamino)propionyl)hexahydropyrrole[3,4-c]pyrrole-2(1H)-yl)-5-methyl-5,8-dihydropyrido[2,3-d]pyrimidin-7(6H)-one] | 6.6 nM | 285 nM
27 | CC(C)NC[C@@H](C(=O)N1CCN(c2ncnc3c2CC(C)C(=O)N3)CC1)c1ccc(Cl)cc1 (stereo partly drawn) [Example 19, 4-(4-((S)-2-(4-chlorophenyl)-3-(isopropylamino)propionyl)piperazin-1-yl)-6-methyl-5,8-dihydropyrido[2,3-d]pyrimidin-7(6H)-one hydrochloride] | 7.4 nM | 58.5 nM
28 | CC(C)NC[C@@H](C(=O)N1CCN(c2ncnc3c2N(C)CC(=O)N3)CC1)c1ccc(Cl)cc1 [Example 20, (S)-4-(4-(2-(4-chlorophenyl)-3-(isopropylamino)propionyl)piperazin-1-yl)-5-methyl-5,8-dihydropteridine-7(6H)-one hydrochloride] | 0.4 nM | 1.1 nM
29 | CC(C)NC[C@@H](C(=O)N1CCN(c2ncnc3c2N(C)C(=O)CN3)CC1)c1ccc(Cl)cc1 [Example 35, (S)-4-(4-(2-(4-chlorophenyl)-3-(isopropylamino)propionyl)piperazin-1-yl)-5-methyl-7,8-dihydropteridine-6(5H)-one] | 212 nM | 146 nM
